Consider five compounds from PMC9171976 (Frontiers in Nutrition, 2022).

Structures are written as SMILES.

The conditions of data set [1]: rats; single oral dose of green tea extract 400 mg/kg 30 min before simvastatin; cited from earlier work.
Data set [2] in a line: Simvastatin-herb pharmacokinetic interaction study, plasma simvastatin lactone and acid by LC-MS/MS. Particulars: male, human, po, 20 mg.
On the set-up of data set [3]: method as in PMID 24419562. To be noted: healthy volunteers; cited from earlier work.
For data set [4] the following is noted: male, human, in vivo, 20 mg.
The next data set can be described thus: clinical. To be noted: male, human, in vivo, 20 mg.
A further data set has as its system human OATP1B1. More on the design: method as in PMID 32006472. Particulars: low concentration; CHO cells; cited from earlier work.
The conditions of data set [5]: same extract given daily for 2 weeks and simultaneously with the dose of rosuvastatin; cited from earlier work.

As to `CCC(C)(C)C(=O)O[C@H]1C[C@@H](C)C=C2C=C[C@H](C)[C@H](CC[C@@H]3C[C@@H](O)CC(=O)O3)[C@H]21` [Simvastatin lactone, simvastatin], the “Effect of green tea extract on t1/2” value in data set [1] was “no effect”. The half-life (commonly the time needed for the level to fall by half in the phase considered) in data set [2] (T1/2, 18 subjects, simvastatin 20 mg with green tea extract, geometric mean (% CV)) was 4.96 h; in data set [2] (T1/2, 18 subjects, simvastatin 20 mg with soy isoflavones, geometric mean (% CV)), 4.51 h; in data set [2] (T1/2, SLCO1B1 521CC (n = 4), after green tea) it was 3.98 h; in data set [2] (T1/2, SLCO1B1 521CC (n = 4), after soy isoflavones), 3.9 h; in data set [2] (T1/2, SLCO1B1 521CC (n = 4), baseline) it was 4.83 h; in data set [2] (T1/2, SLCO1B1 521TC (n = 8), after green tea) it was 4.72 h. The half-life in data set [2] (T1/2, SLCO1B1 521TC (n = 8), after soy isoflavones) is 4.71 h; in data set [2] (T1/2, SLCO1B1 521TC (n = 8), baseline), 4.54 h; in data set [2] (T1/2, SLCO1B1 521TT (n = 6), after green tea) it was 6.15 h; in data set [2] (T1/2, SLCO1B1 521TT (n = 6), after soy isoflavones) it was 4.71 h.
Consider `CC(C)(C)NCC(O)COc1cccc2c1CC(O)C(O)C2` (stereo not shown) [nadolol], for which the “Reduction of systemic exposure with green tea taken as a drink” value in data set [3] is 85%.
As to `CCC(C)(C)C(=O)O[C@H]1C[C@@H](C)C=C2C=C[C@H](C)[C@H](CC[C@@H](O)C[C@@H](O)CC(=O)O)[C@H]21` [Simvastatin acid, simvastatin acid], in data set [1], the “Increase of AUC0–6h with green tea extract” value is given as 2.0 fold. In addition, in data set [4], the “AUC0–24h” value is given as 12.1 (54.6) h⋅μg/L. In addition, the AUC(0-t) (as a rule, the area under the concentration-time curve up to a stated or last time point) in the data set “clinical” (AUC0–24h) is 16.1 ng·h/mL. In addition, in the data set “clinical” (po, T1/2), the half-life is 3.94 h. Further, the Tmax (as a rule, the time from dosing to the highest level) in “clinical” (po, Tmax) was found to be 3.5 h.
In the case of `O=C(O[C@@H]1Cc2c(O)cc(O)cc2O[C@@H]1c1ccc(O)c(O)c1)c1cc(O)c(O)c(O)c1` [epicatechin gallate (ECG), epicatechin gallate], in the data set with human OATP1B1, the “Stimulating effect on OATP1B1-mediated DCF uptake” value is reported as “about 160%”.
For `CC(C)c1nc(N(C)S(C)(=O)=O)nc(-c2ccc(F)cc2)c1/C=C/[C@@H](O)C[C@@H](O)CC(=O)O` [rosuvastatin], the “Reduction of systemic exposure with green tea extract” value in data set [5] was “about 20%”.
